Compound | melting point
COc1ccc(C(=O)c2ccccc2)c(OC)c1 | 81 to 83 °C
CN(C)c1ccc(C(N)=O)cc1 | 207 to 209 °C
O=C(O)c1ccc(S)cc1Cl | 184 to 186 °C
O=C(O)CCc1cc(Cl)cs1 | 69 to 71 °C
Cc1cc2ncn(CC3CO3)c2cc1C (stereo unspecified) | 119 to 121 °C
CC1(CCc2ccc(O)cc2)NC(=O)NC1=O (stereo unspecified) | 192 to 194 °C
CS(=O)(=O)c1ccc(F)cc1[N+](=O)[O-] | 148 to 150 °C
O=C1CC(c2ccccc2)NCCN1 (stereo unspecified) | 102 to 104 °C
O=C(CCl)N1N=C(c2ccco2)CC1c1cccs1 (stereo unspecified) | 153 to 155 °C
CC(C)C(N)c1nnc2ccccn12 (stereo unspecified) | 116 to 118 °C
Cc1ccc(S(=O)(=O)Nc2ccccc2Br)cc1 | 88 to 90 °C
Cn1ccnc1-c1cc(N)on1 | 178 to 180 °C
CC(C)C(Br)C(=O)N1CCC(C(N)=O)CC1 (stereo unspecified) | 172 to 174 °C
O=C(O)CSc1ccc(F)c(F)c1 | 62 to 64 °C
Cc1cc(Cl)c2cc([N+](=O)[O-])ccc2n1 | 140 to 142 °C
CC(C)(C)OC(=O)NC(C(=O)O)c1cccc(Cl)c1 (stereo unspecified) | 128 to 130 °C
C#CCNS(C)(=O)=O | 56 to 58 °C
CC(C)(C)OC(=O)N1CCCC(CC#N)C1 (stereo unspecified) | 48 to 50 °C
Clc1ccc(Cl)c(OCC2CO2)c1 (stereo unspecified) | 62 to 64 °C
O=C(O)C1=NOC(c2ccccc2)C1 (stereo unspecified) | 102 to 104 °C
COC(=O)C(N)c1ccc(OC)cc1 (stereo unspecified) | 59 to 61 °C
CCOC(=O)/C=C1/SCC(=O)N1Cc1cc(C(C)=O)ccc1OCC | 175 to 177 °C
NC(=O)c1cnn2c(C(=O)O)ccnc12 | 199 to 201 °C
CC1(c2cccc(-n3cnnn3)c2)NC(=O)NC1=O (stereo unspecified) | 190 to 192 °C
CNC(=O)c1cc(OC)c(OC)cc1N | 129 to 131 °C

Compound | melting point
NCc1noc(-c2ccccc2)n1 | 115 to 117 °C
CC(O)c1cnc(-c2ccc(Br)cc2)s1 (stereo unspecified) | 77 to 79 °C
CCOC(=O)c1cn2c(n1)NCCC2 | 171 to 173 °C
COC(=O)c1c(F)cc(C#N)cc1F | 111 to 113 °C
N#Cc1cc(Cl)ccn1 | 81 to 85 °C
O=C(O)c1nn(-c2ccccc2)cc1OC(F)F | 134 to 136 °C
Nc1cccc(-c2csc(N)n2)c1 | 174 to 176 °C
Cc1nscc1C(=O)O | 219 to 221 °C
O=C(CCl)NCc1ccccc1F | 79 to 81 °C
c1ccc2oc(-c3ccncc3)cc2c1 | 73 to 75 °C
COC(=O)c1cc(-c2cccc(C(F)(F)F)c2)ccc1N | 72 to 74 °C
Nc1ccccc1NC(=O)c1ccncc1 | 179 to 181 °C
Nc1nc(-c2cccc(Cl)c2)cs1 | 125 to 127 °C
Cn1cc(C=NNC(N)=S)cn1 | 189 to 191 °C
CN(C(=O)c1ccc(N)cc1)C1CCOCC1 | 170 to 172 °C
O=C(O)c1cc(-c2ccncc2)nc2ccccc12 | 308 to 310 °C
CNc1ncc([N+](=O)[O-])cc1C#N | 181 to 183 °C
CCOc1ccc(N(C)S(=O)(=O)c2ccc(C)c(C(=O)O)c2)cc1 | 175 to 177 °C
Clc1ccnc2ccc(Br)cc12 | 111 to 113 °C
Cn1c(C=O)nc2c1c(=O)[nH]c(=O)n2C | 284 to 286 °C
CC1CCN(C(=O)c2cccnc2Cl)CC1 | 96 to 98 °C
CCNC(=O)N1CCc2ccc(N)cc21 | 134 to 136 °C
Cc1ccc(S(=O)(=O)OI(O)c2ccccc2)cc1 | 134 to 136 °C
CCS(=O)(=O)NC1CCCNC1 (stereo unspecified) | 104 to 106 °C
N#Cc1cc([N+](=O)[O-])ccc1N1CCC(C(=O)O)CC1 | 161 to 163 °C

Compound | melting point
CC(C)(C)CS(N)(=O)=O | 119 to 121 °C
NC1CCCC(C(=O)NC2CC2)C1 (stereo unspecified) | 97 to 99 °C
Cc1nc(CN)oc1-c1ccc(Cl)cc1 | 69 to 71 °C
Nc1ccccc1C(=O)NCC(F)(F)F | 125 to 130 °C
C=CCN1C(=O)C(=O)c2ccccc21 | 108 to 110 °C
CC(C)(C)c1noc2ncc(C(=O)O)cc12 | 207 to 209 °C
Nc1ccc(F)c(NC(=O)c2ccsc2)c1 | 118 to 120 °C
Nc1ccc(Br)nc1Cl | 113 to 115 °C
O=C(O)c1ccc(S(=O)(=O)N2CCCC2)cc1 | 243 to 245 °C
CCN(C1CC1)S(=O)(=O)c1c(C)n[nH]c1C | 97 to 99 °C
NNc1ccccc1S(=O)(=O)N1CCOCC1 | 141 to 143 °C
c1cncc(-c2ncn[nH]2)c1 | 173 to 175 °C
O=C(O)CCC(=O)NCC(=O)c1ccc(F)cc1F | 173 to 175 °C
NS(=O)(=O)C1CCCCC1 | 91 to 93 °C
COC(=O)c1ccc(C(F)(F)F)cc1N | 58 to 60 °C
COc1sc(C=O)cc1Br | 115 to 117 °C
CC(C)c1nnc(S)n1N | 117 to 119 °C
CN1C(=O)CC(CO)C1c1cccc(Cl)c1 (stereo unspecified) | 101 to 103 °C
O=C(O)CC(=O)NC1CC1 | 99 to 101 °C
CC(O)c1ccc(-n2cncn2)cc1 (stereo unspecified) | 90 to 92 °C
C=CCNC(=O)c1ccccc1N | 92 to 94 °C
Cc1nc2c(Cl)cccc2n1O | 239 to 241 °C
NC(=S)Cc1cccc(Cl)c1 | 105 to 107 °C
COc1ccc(Cl)c(S(N)(=O)=O)c1 | 129 to 131 °C
NC(=NO)c1ccc(COc2ccccc2)cc1 | 143 to 145 °C

Compound | melting point
CC(Cl)C(=O)Nc1ccc([N+](=O)[O-])cc1C(F)(F)F (stereo unspecified) | 183 to 185 °C
Cc1ccc(C(=O)CBr)cc1C | 63 to 65 °C
CC(=O)c1cnn(-c2ccccc2)c1 | 124 to 126 °C
Cn1ccc(S(=O)(=O)NCC2(N)CCCCC2)c1 | 94 to 96 °C
O=C(O)c1cccnc1OCC(F)(F)F | 122 to 124 °C
CSc1ccc(Cl)c(C(N)=O)c1 | 144 to 146 °C
Cc1cc2nc(Cl)c3ccccc3n2n1 | 138 to 140 °C
CCn1cc2ccc(N)cc2n1 | 97 to 99 °C
CC(C)Sc1ccc(Cl)nn1 | 56 to 58 °C
CS(=O)(=O)N1CCCC(CCl)C1 (stereo unspecified) | 64 to 66 °C
O=C1NC(=O)C(Cc2c[nH]c3ccccc23)N1 (stereo unspecified) | 235 to 237 °C
O=C(O)c1ccc(NC(=O)c2ccc(Br)cc2)cc1 | 327 to 329 °C
CC(=O)c1cc(C(=O)O)n(C)c1 | 177 to 181 °C
NS(=O)(=O)c1ccc(-c2ccc(Br)cc2)cc1 | 207 to 209 °C
C#Cc1nc2ccccc2n1C | 82 to 84 °C
Cc1ccc(C(C)C)c2c1C(=O)CCO2 | 36 to 38 °C
Cc1ccccc1OCC(=O)NN | 120 to 122 °C
CC(C(=O)O)C(NC(=O)OC(C)(C)C)c1ccccc1 (stereo unspecified) | 71 to 73 °C
COc1ccc(C(=O)NN)c(OC)c1 | 112 to 114 °C
COc1ccc(C=O)c([N+](=O)[O-])c1 | 91 to 93 °C
COC(=O)C1CCN(c2ccnc(C#N)c2)CC1 | 104 to 106 °C
Nc1sc2c(c1-c1nc3ccccc3s1)CCC2 | 135 to 137 °C
O=C(O)c1cc(Cl)c2c(c1)OCCCO2 | 195 to 197 °C
N#Cc1csc(C(=O)O)c1 | 224 to 226 °C

Second part, the compound after the results:

melting point | Compound
214 to 216 °C | O=C(Nc1sccc1C(=O)O)c1ccc2c(c1)CCC2
155 to 157 °C | Nc1nnc(C(F)(F)F)[nH]1
281 to 283 °C | O=C(O)c1cc2c(Cl)c(Cl)ccc2[nH]1
148 to 150 °C | N=c1[nH]cnn1-c1ccccc1
159 to 161 °C | O=C1C=CC(=O)N1c1ccc(F)c(Cl)c1
199 to 201 °C | Cc1nc2sc3c(c2c(=O)n1N)CCCCC3
42 to 44 °C | CC(C)NC(C)(C)CO
127 to 129 °C | N#Cc1cc(N)ccc1Cl
93 to 95 °C | NNc1ccc(S(=O)(=O)C(F)(F)F)cc1
285 to 287 °C | O=C(NC1(C(=O)O)CCCC1)c1ccc2[nH]ncc2c1
279 to 281 °C | O=c1[nH]cnc2c1nnn2-c1ccccc1
95 to 97 °C | CCNC(=O)COc1ccc(N)cc1
119 to 121 °C | Cc1cccc(-c2noc(S)n2)c1
103 to 107 °C | CN1CCN(S(=O)(=O)c2ccc(Cl)c(N)c2)CC1
78 to 80 °C | COC(=O)c1ccccc1NC(=O)CBr
103 to 105 °C | CC(Oc1ccc2c(c1)CCC2)C(=O)O (stereo unspecified)
136 to 138 °C | CN(c1ccccc1)S(=O)(=O)c1ccccc1C(=O)O
65 to 67 °C | CC(C#N)CSc1ccccc1N (stereo unspecified)
47 to 49 °C | COC(=O)C(=CN(C)C)C(C)=O
204 to 206 °C | CC(Cl)C(=O)Nc1sc2c(c1C#N)CCC2 (stereo unspecified)
167 to 169 °C | Cc1nnc(SCC(=O)O)n1Cc1ccccc1
173 to 175 °C | Cc1ccc(-n2nnc(C(=O)O)c2C2CC2)cc1
319 to 321 °C | O=C(O)c1cc(N2CCNC2=O)ccc1F
222 to 224 °C | O=C(O)c1ccnc(Cl)c1[N+](=O)[O-]

melting point | Compound
149 to 151 °C | CN(C)c1nc(=N)cc[nH]1
140 to 142 °C | O=C(Cc1ncc[nH]1)c1ccc(Cl)cc1F
147 to 149 °C | CCN(CC)S(=O)(=O)c1cc(C)c(C)c(N)c1
139 to 141 °C | Nc1nc(Cc2ccccc2)c(-c2ccccc2)s1
120 to 122 °C | COc1ccc(C(C)=O)cc1NC(C)=O
205 to 207 °C | CS(=O)(=O)Nc1cc(F)ccc1C(=O)O
132 to 134 °C | CC1CN(Cc2csc(N)n2)CC(C)O1 (stereo unspecified)
144 to 146 °C | CCOc1ccccc1-c1cccc(C(=O)O)c1
243 to 245 °C | Cc1ccc2oc(C(=O)O)cc2c1
78 to 82 °C | O=C(NC1CCCCC1)OCC(F)(F)F
82 to 84 °C | O=Cc1cnn2ccccc12
162 to 164 °C | S=c1[nH]nnn1-c1ccc(Br)cc1
103 to 105 °C | Cn1cc(C=O)nn1
55 to 57 °C | Cc1cccc(OCCCC(=O)O)c1
216 to 218 °C | C#CCOc1ccc(C(=O)O)cc1
180 to 182 °C | O=C(O)CCc1ncc(-c2ccccc2Br)o1
228 to 230 °C | CS(=O)(=O)c1ccc(Cl)c(S(N)(=O)=O)c1
190 to 192 °C | O=C(O)c1cccnc1Oc1cccnc1
171 to 173 °C | CC(C)Oc1ncc(C(=O)O)cc1Cl
179 to 181 °C | Sc1nc(-c2cccnc2)no1
56 to 58 °C | COc1cc(C)cc2c(C)c(C(C)N)oc12 (stereo unspecified)
228 to 230 °C | NC(=O)c1cccc2ncccc12
92 to 94 °C | Cc1c(Cl)ccc2ccc(Cl)nc12

— a melting point compilation (Tetko et al.)
